Earlier results, collected in patent publication US20110189299A1, “PHARMACEUTICAL COMPOSITION CONTAINING SURFACE-COATED MICROPARTICLES” (NITTO DENKO CORPORATION, priority 2008, published 2011).

pKa: 9.5
SMILES: CN(C)CCc1c[nH]c2ccc(C[C@H]3COC(=O)N3)cc12 [Zolmitriptan]
